# “Also recorded” adds a separate entry of the source. Where two headings read alike, the source gives them in different places.
# What was measured:
# [1] = system: B16F1 murine melanoma cells; experiment: Viability of treated B16F1 cells by [3H]-thymidine incorporation; format: cell-based; conditions: 24 hours
# fibronection = experiment: Adhesion of B16F1 cells to fibronectin; format: cell-based; conditions: 24 hours
# Experimental: Adhesion of B16F1 Cells to Basement Membrane Proteins
# Adhesion proteins (2 μg/well) were coated onto Immulon I Removawells from Dynatech and incubated for 1 hour at 37° C. The wells were then blocked for 1 hour with 400 μl PBS, pH 7.2 containing 1% bovine serum albumin (BSA) at 37° C. Prior to addition of the cell suspension, the blocking solution was aspirated.
# Sub-confluent cells were washed twice with HBSS and removed form flasks by incubation for 10 minutes at 37° C. with PBS (pH 7.2), 2 mM EDTA, and 1% BSA. The cells were washed twice with MEM containing 20 mM HEPES and 0.1% BSA and resuspended in the same medium to give a cell density of […].
# Cells were added to wells in 50 μl (5×10^4 cells) and incubated at 37° C. The wells were aspirated and washed three times with 400 μl PBS (pH 7.2) containing 0.1% BSA. Wells were detached and counted in 5 ml Beckman Ready Protein. Blanks were not coated with protein but were blocked with BSA as described above.
# cytosolic PKC = experiment: Inhibition of B16F1 cytosolic PKC activity; format: biochemical, murine; conditions: B16F1 cytosol fraction
# Experimental: Protein Kinase C Preparation
# Cytostolic and membrane-associated PKC was prepared as described in Thomas, T. P., Gopalakrishna, R. and Anderson, W. B. Hormone- and tumor promoter-induced activation of membrane association of protein kinase C in intact cells, Methodsin Enzymology, 141: 399-411, 1987. Sub-confluent B16F1 cultures (4×10^7 cells total) were washed twice with phosphate buffered saline (PBS), pH 7.2 and then twice with buffer A (20 mM Tris, pH 7.5, 2 mM EDTA, 0.5 mM EGTA, […], 2 mM phenylmethylsulfonyl fluoride (PMSF), and 2 μg/ml leupeptin). Cells were scraped from the plates in buffer A, homogenized (40 strokes) and sedimented by centrifugation for 1 hour at 100,000 g. The cytosol was stored on ice while the particulate fraction was washed with buffer B (20 mM Tris, pH 7.2, 2 mM EDTA, 0.5 mM EGTA, and 2 mM (PMSF). The membranes were resuspended with buffer B and homogenized with 10 strokes. Nonidet P-40 (1% final concentration) was added and the mixture was incubated for 30 minutes at 4° C. in a rotating mixer. Nonsolubilized material was removed by centrifugation for 10 minutes at 1400 g. Cytostolic and membrane-bound PKC was partially purified by chromatography over 1 ml columns of DE-52 (Whatman) equilibrated with buffer B. The enzyme was applied to the column and washed with 2×3 ml buffer B. Elution of PKC was then effected by the addition of 2 ml buffer B containing 100 mM NaCl.
# PKC was quantitated as described in Thomas et al., ibid. The assay contained 20 mM Tris (pH 7.5), 0.75 mM CaCl, 10 mM magnesium acetate, […] histone III-S, 0.25 μg/ml leupeptin, 100 μM [gamma-^32 p]-ATP (120 cpm/pmol), 0.96 μg/ml phosphatidylserine, and 0.0064 μg/ml 1,2-diolein in a total assay volume of 250 μl. Blanks contained no calcium or phospholipids. Incubation was for 5 minutes at 30° C. at which point the reaction was terminated by the addition of 1 ml 25% trichloroacetic acid (TCA). Samples were applied to Whatman GF/B filters, the tube rinsed twice with 5% TCA and the filter then washed 5 times with 5% TCA.
# ^a Subconfluent B16F1 cells were harvested and cytosol and membrane
# fractions prepared as described in Materials and Methods. PKC activity wa
# then measured in the presence of the drugs listed.
# B16F1 cells = experiment: Experimental lung metastasis assay (B16F1 cells treated in culture, then injected intravenously into C57BL/6 mice); format: in vivo, murine (C57BL/6 mice); conditions: for % Control (number of nodules) / Number of nodules per set of lungs, Mean +/- SE: 24 hours; for IC50: cells exposed to drugs for 24 hours, nodules counted three weeks later, read-out: B16 Metastasis IC50
# Experimental: Experimental Metastasis Assay
# Sub-confluent B16F1 cells were harvested by washing with HBSS followed by trypsinization for 1 minute. The cells were sedimented by centrifugation (250 g, 5 minutes) and washed twice with HBSS. Viable cells were counted after dilution with trypan blue. A single-cell suspension of 10^5 cells in 0.2 ml HBSS was injected intravenously into 16-18 C57BL/6 mice via the tail vein. Three weeks later, the number of metastatic foci in the lung were counted.
# [2] = system: B16F1 cells / human umbilical vein endothelial cells (HUVEC); experiment: Adhesion of B16F1 melanoma cells to endothelial cells (HUVEC); format: cell-based, murine B16F1 cells; human HUVEC; conditions: for Adherent B16F1 Cells, Mean +/- SE / activity at 50 µM: 50 μM, 24 hours treatment; for activity at 50 µM: Mus musculus, read-out: B16F1 cells adhered expressed as percent of control
# Experimental: Adhesion of Tumor Cells to Endothelial Cells
# Round 15 mm Thermanox tissue culture cover slips from Lux were placed in Corning 12-well, 22 mm diameter tissue culture clusters. HUVEC (2×10^6) were added to each well and grown to confluency. Sub-confluent B16F1 cells were labeled with 1 μCi/ml [^3 H]-thymidine (New England Nuclear, 78.5 Ci/mmol) for 24 hours at 37° C.
# In preparation for the adhesion assay, the tissue culture wells containing either HUVEC or no cells were blocked with MEM containing 20 mM HEPES and 1% BSA for 1 hour at 37° C. B16F1 cells were removed from the flasks as described above for adhesion to basement membrane proteins and diluted to a density of 2×10^5 viable cells/ml in MEM (viability determined by trypan blue exclusion).
# Blocking solution was aspirated from the wells and 1 ml of cells were added per well and incubated at 37° C. Nonadherent cells were washed from coverslips as described in Wright, P. S., Cross-Doersen, D., McCann, P. P. and Bitonti, A. J., Plasmodium falciparum: a rapid assay for cytoadherence of [^3 H]-hypoxanthine-labeled infected erythrocytes to human melanoma cells, Exp. Parasitol., 71: 346-349, 1990. Coverslips were retrieved from the well with forceps and dipped 10 times into a beaker of 100 ml MEM. Coverslips were placed into scintillation vials and counted in 10 ml Beckman Ready Protein.
# B16F1 cells were treated with 4-propyl-5(4-pyridinyl)-
# (3H)-oxazolone for 24 hours at 37° C. Cells were then
# harvested and added to wells containing confluent HUVEC
# cells and incubated for the time indicated at 37° C. Details
# are given in Materials and Methods.
smiles,measurement,setting,value
"CCCc1[nH]c(=O)oc1-c1ccncc1 [Compound 1, 4-propyl-5(4-pyridinyl)-2(3H)-oxazolone]",viability of treated cells ([3H]-thymidine incorporation),[1],equivalent to untreated cells
same,adherence to fibronection,fibronection,inhibited minimally or not at all
same,IC50,cytosolic PKC,54 µM
same,% Control (number of nodules),B16F1 cells; 1 μM,67%
same,"Number of nodules per set of lungs, Mean +/- SE",B16F1 cells; 1 μM,12 +/- 2.8 nodules per set of lungs
same,% Control (number of nodules),B16F1 cells; 5 μM,78%
same,"Number of nodules per set of lungs, Mean +/- SE",B16F1 cells; 5 μM,14 +/- 3.3 nodules per set of lungs
same,% Control (number of nodules),B16F1 cells; 10 μM,43%
same,"Number of nodules per set of lungs, Mean +/- SE",B16F1 cells; 10 μM,7.8 +/- 2.1 nodules per set of lungs
same,% Control (number of nodules),B16F1 cells; 20 μM,30%
same,"Number of nodules per set of lungs, Mean +/- SE",B16F1 cells; 20 μM,5.4 +/- 1.1 nodules per set of lungs
same,% Control (number of nodules),B16F1 cells; 50 μM,12%
same,"Number of nodules per set of lungs, Mean +/- SE",B16F1 cells; 50 μM,2 +/- 0.6 nodules per set of lungs
same,inhibition of lung metastasis,"B16F1 cells; 24 hours in culture, then intravenous injection into C57BL/6 mice",90%
same,IC50,"B16F1 cells; Mus musculus, B16-F1, iv",6.8 µM
same,number of lung metastases,"B16F1 cells; cells exposed in vitro, then injected into mice",diminished the number of lung metastases
same,IC50,B16F1 cells,7 µM
same,incubation time for 50% of maximum inhibition of metastasis,B16F1 cells; time dependence of incubation,≤ 8 h
same,potency for inhibition of metastasis relative to H-7,B16F1 cells; versus H-7,more potent than H-7
same,potency for inhibition of metastasis relative to staurosporine,B16F1 cells; versus staurosporine,significantly less potent than staurosporine
same,adherence to HUVEC,[2],decreased adhesion; also recorded: less adherent
same,"Adherent B16F1 Cells, Mean +/- SE",[2]; 5 min adhesion,"4,513 cells"
same,"Adherent B16F1 Cells, Mean +/- SE",[2]; 10 min adhesion,"7,828 cells"
same,"Adherent B16F1 Cells, Mean +/- SE",[2]; 20 min adhesion,"48,750 cells"
same,"Adherent B16F1 Cells, Mean +/- SE",[2]; 30 min adhesion,"92,084 cells"
same,"Adherent B16F1 Cells, Mean +/- SE",[2]; 60 min adhesion,"136,950 cells"
same,activity at 50 µM,"[2]; B16-F1, 5 min, 5 min adhesion",126%
same,activity at 50 µM,"[2]; B16-F1, 10 min, 10 min adhesion",39%
same,activity at 50 µM,"[2]; B16-F1, 20 min, 20 min adhesion",60%
same,activity at 50 µM,"[2]; B16-F1, 0.5 h, 30 min adhesion",71%
same,activity at 50 µM,"[2]; B16-F1, 1 h, 60 min adhesion",110%

# From patent US5610171A, “Inhibition of metastasis in patients having cancer with pyridyloxazole-2-ones” (Merrell Pharmaceuticals Inc., priority 1995, dated 1997)
